Molecules are shown by their SMILES.

The values that follow come from patent US5223526A, “Pyrazole carboxanilide fungicides and use” (Monsanto Company, priority 1992, dated 1993).

Experiment [1] concerns Botrytis cinerea. As to the kind of experiment: Eggplant grey mold. The class given is in vivo. To be noted: inoculated 24 h later, rated after 3-4 days; for Disease Control Rating at 20 ppm: eggplant sprayed with 20 ppm; for Disease Control Rating at 100 ppm: eggplant sprayed with 100 ppm; for Disease Control Rating at 500 ppm: eggplant sprayed with 500 ppm. Set-up: scale not given here. On the procedure: Eggplant seed are planted in 2.25" square pots, six per pot, and maintained in growth chambers set at 23° C., 80% humidity, and 12 h photoperiod. When the plants are at the cotyledon stage (14-18 days afterplanting), the plants are sprayed with 1.5 mL/pot of 500, 100 or 20 ppm 2:3 acetone:water (with 0.5% Tween® 20) formulations of the test compounds.
Twenty-four hours later the plants are inoculated with Botrytis cinerea, approximately 0.5 mL/pot of a 4×10^6 spore/mL suspension. The plantes are incubated at 23° C. and 100% humidity for 3-4 days, at which time disease control ratings are made based on presence and severity of Botrytis lesions.

The next experiment has as its system Rhizoctonia solani. The experiment is described as follows: Rice sheath blight. To be noted: inoculated two days later, rated after 7 days, average of five plants; for Disease Control Rating at 0.5 mg/mL: foliage and soil sprayed with 0.5 mg/mL; for Disease Control Rating at 0.02 mg/mL: foliage and soil sprayed with 0.02 mg/mL; for Disease Control Rating at 0.1 mg/mL: foliage and soil sprayed with 0.1 mg/mL. Also on record: scale not given here. Format: in vivo. On the procedure:
Rice plants, 11 to 15 days old, are grown in 7.65 cm^2 pots. Each plant in the treatment groups is treated by spraying both the foliage and the soil surface, each with 2 mL of a water/acetone/Tween®20 formulation containing 0.5, 0.1, or 0.02 mg/mL of Compound A. The pots are placed in flood trays which are filled with water to just below the soil line. Two days later, approximately two grams of Rhizoctonia solani inoculum, cultured on rice grain for four to eight weeks, is applied to the base of the rice plants in each pot. After 7 days in a 25° C. high humidity growth chamber, each plant is evaluated for the level of disease contro as compared to untreated controls by the following scale and the average of five plants per treatment level is calculated.

Another experiment concerns the target T1, succinate dehydrogenase (Botrytis cinerea, UniProt A0A384J5E4+A0A384J8V8+A0A384JHJ5).
T1 construct: succinate-DCPIP reductase assay with KCN
As to the kind of experiment: Enzyme inhibition: succinate dehydrogenase activity in Botrytis cinerea mitochondria (DCPIP reduction). Format: biochemical. To be noted: concentration required to inhibit the rate of DCPIP reduction by 50%; Botrytis cinerea isolate Nick mitochondria; read-out: I50 (μM conc.). Here is the method: Mitochondria were isolated by a method adapted from G.A. White [Biochem. Biophys. Res. Commun. 44: 1212, 1971]. Twenty to thirty grams of Botrytis cinerea isolate Nick were resuspended in 250 mL 0.25M sucrose, 5mM Na4 EDTA, pH 7.0 (+) 0.15% (w/v) bovine serum albumin (BSA) and placed in a Bead Beater chamber (Biospec Products, Bartlesville, Ok.). Zirconium oxide beads (0.5mm) were added to finish filling the chamber. Four 30 second beats separated by 2 minute temperature equilibration periods in the cold were used to break the mycelia. A crude mitochondrial preparation was harvested from the homogenate by differential centrifugation at 4° C. and resuspended in BSA-free sucrose/EDTA media and used for SDH assays.
The succinate dehydrogenase activity was measured at 600 nm in 50 mM potassium phosphate, pH 7.2, 1 mM KCN, 45 μM 2,6-dichlorophenolindophenol (DCPIP) and 17 mM disodium succinate (final volume, 1 mL) with a Perkin-Elmer Lambda 7 ultraviolet-visible spectrophotometer. The test compounds were added as acetone solutions (final concentration of acetone, 1% (v/v)). The mitochondrial preparatons were used to initiate the reaction. All rates were corrected for endogenous activities minus succinate. Semilog plots of percentage inhibition versus test compound concentration were used to determine inhibition expressed as I50 (μM) which is the concentration required to inhibit the rate of DCPIP reduction by 50%. The commercial fungicide carboxin was used as standard throughout.

The subject of experiment [2] is Botrytis cinerea. The experiment is described as follows: Vine grey mold (grape berries). Format: in vivo. To be noted: average of six berries, 7-10 days; for pest or weed control at 50 ppm: grape berries treated with 50 ppm, read-out: % DISEASE CONTROL 50 ppm; for pest or weed control at 200 ppm: grape berries treated with 200 ppm, read-out: % DISEASE CONTROL 200 ppm. On the procedure:
Grape berries, which have been washed and surfaced sterilized in 70% ethanol for one minute, are, except for the negative controls, treated with 0.2 mL of a 2:3 acetone/water formulation (containing 0.05% Tween® 20) of 200 or 50 ppm of the test compounds and placed one per well in 12-well plates. Six berries per treatment level are used. Twenty-four hours later each berry is inoculated with Botrytis cinerea conidia, 0.2 mL of 10^6 spores/mL suspension. The plates are incubated at 20° C. with a 12 hours photoperiod for 7-10 days and the percent surface area infected with the disease is determined for each replicate using the values of 0, 1, 2, 5, 7, 10, 15, 20, 25, 30, 35, 40, 45, 50, 55, 60, 65, 70, 75, 80, 85, 90, 95, and 100%. Treatment means are calculated and percent disease control is determined by the formula [(control mean - treatment mean)/control means]×100.
Some of the compounds have been tested more than once and the results shown are the average of the number of tests reported.

T1 sequence (A0A384J5E4 1-300): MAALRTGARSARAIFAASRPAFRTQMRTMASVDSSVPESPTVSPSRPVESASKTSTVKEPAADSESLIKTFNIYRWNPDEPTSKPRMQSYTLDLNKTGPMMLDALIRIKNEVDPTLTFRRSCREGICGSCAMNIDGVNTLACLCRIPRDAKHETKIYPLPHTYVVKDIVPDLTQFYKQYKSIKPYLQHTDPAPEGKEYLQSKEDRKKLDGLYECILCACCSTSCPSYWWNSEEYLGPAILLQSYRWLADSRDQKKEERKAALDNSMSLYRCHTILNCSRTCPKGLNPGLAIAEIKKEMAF
T1 sequence (A0A384J8V8 1-189): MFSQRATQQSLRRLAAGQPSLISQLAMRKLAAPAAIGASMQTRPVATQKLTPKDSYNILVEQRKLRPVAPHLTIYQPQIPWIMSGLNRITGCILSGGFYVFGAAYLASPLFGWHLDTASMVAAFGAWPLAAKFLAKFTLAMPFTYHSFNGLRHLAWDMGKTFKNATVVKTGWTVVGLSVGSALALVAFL
T1 sequence (A0A384JHJ5 1-192): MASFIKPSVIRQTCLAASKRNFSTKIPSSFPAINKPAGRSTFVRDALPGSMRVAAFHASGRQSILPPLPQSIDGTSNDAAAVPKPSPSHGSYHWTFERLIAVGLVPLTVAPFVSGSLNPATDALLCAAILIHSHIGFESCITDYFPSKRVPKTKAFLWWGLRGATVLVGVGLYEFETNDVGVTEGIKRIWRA
T1 sequence (A0A384K456 1-647 partner): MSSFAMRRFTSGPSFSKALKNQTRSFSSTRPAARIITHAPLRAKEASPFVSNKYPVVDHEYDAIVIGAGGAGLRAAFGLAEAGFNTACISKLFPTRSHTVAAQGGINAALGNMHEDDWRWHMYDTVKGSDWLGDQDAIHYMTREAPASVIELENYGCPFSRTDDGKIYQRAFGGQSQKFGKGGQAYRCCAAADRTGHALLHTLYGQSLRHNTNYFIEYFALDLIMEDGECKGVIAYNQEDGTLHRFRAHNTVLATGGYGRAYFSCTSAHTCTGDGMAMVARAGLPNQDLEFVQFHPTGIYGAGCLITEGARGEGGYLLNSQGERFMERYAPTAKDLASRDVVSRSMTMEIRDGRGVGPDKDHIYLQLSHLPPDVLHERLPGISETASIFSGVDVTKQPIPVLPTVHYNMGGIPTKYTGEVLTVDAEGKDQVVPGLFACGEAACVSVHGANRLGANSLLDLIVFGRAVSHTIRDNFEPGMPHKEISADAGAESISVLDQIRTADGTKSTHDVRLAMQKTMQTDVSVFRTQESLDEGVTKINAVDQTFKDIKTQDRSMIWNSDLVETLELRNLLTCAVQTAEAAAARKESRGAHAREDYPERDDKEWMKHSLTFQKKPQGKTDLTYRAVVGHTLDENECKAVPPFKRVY

Turning to `Cn1cc(C(=O)Nc2ccccc2C2=CCSCC2)c(C(F)F)n1` [Example 144, 1H-pyrazole-4-carboxamide, 3-(difluoromethyl)-N-[2-(5,6-dihydro-2H-thiopyran-4-yl)phenyl]-1-methyl-], in the experiment on Botrytis cinerea [1], the “Disease Control Rating at 20 ppm” value came out at 0, the “Disease Control Rating at 100 ppm” value was determined as 0 and the “Disease Control Rating at 500 ppm” value is recorded as 1. Further, the “Disease Control Rating at 0.5 mg/mL” value in the experiment on Rhizoctonia solani came to 3. The IC50 at succinate dehydrogenase is 0.037 µM. Besides, in the experiment on Botrytis cinerea [2], the pest or weed control at 50 ppm was determined as 15% and the pest or weed control at 200 ppm came to 37%.

In the case of `CCC1CC=C(c2ccccc2NC(=O)c2cn(C)nc2C(F)F)CC1` (stereo not drawn) [Example 125, 1H-pyrazole-4-carboxamide, 3-(difluoromethyl)-N-[2-(4-ethyl-1-cyclohexen-1-yl)phenyl]-1-methyl-], in the experiment with Botrytis cinerea [1], the “Disease Control Rating at 20 ppm” value is given as 2, the “Disease Control Rating at 100 ppm” value is 1 and the “Disease Control Rating at 500 ppm” value turned out to be 2. In the experiment on Rhizoctonia solani, the “Disease Control Rating at 0.02 mg/mL” value was 2, the “Disease Control Rating at 0.1 mg/mL” value was 2 and the “Disease Control Rating at 0.5 mg/mL” value is given as 3. Moreover, at succinate dehydrogenase, the IC50 stood at 0.005 µM. Moreover, in the experiment on Botrytis cinerea [2], the pest or weed control at 50 ppm stood at 88% and the pest or weed control at 200 ppm was 93%.

For `Cn1nc(C(F)(F)F)c(C(=O)Nc2ccccc2C2CCCCC2)c1F` [Example 84, 1H-pyrazole-4-carboxamide, N-(2-cyclohexylphenyl)-5-fluoro-1-methyl-3-(trifluoromethyl)-], in the experiment on Botrytis cinerea [1], the “Disease Control Rating at 20 ppm” value is 0, the “Disease Control Rating at 100 ppm” value is listed as 1 and the “Disease Control Rating at 500 ppm” value came out at 2. In addition, the “Disease Control Rating at 0.5 mg/mL” value in the experiment with Rhizoctonia solani is 0. Besides, the IC50 at succinate dehydrogenase came out at 0.013 µM. Moreover, in the experiment on Botrytis cinerea [2], the pest or weed control at 50 ppm turned out to be 93% and the pest or weed control at 200 ppm is 96%.

With `Cn1cc(C(=O)Nc2cc(Cl)ccc2C2CCCCC2)c(C(F)(F)F)n1` [Example 94, 1H-pyrazole-4-carboxamide, N-(5-chloro-2-cyclohexylphenyl)-1-methyl-3-(trifluoromethyl)-], in the experiment with Botrytis cinerea [1], the “Disease Control Rating at 500 ppm” value is 0. Besides, in the experiment on Rhizoctonia solani, the “Disease Control Rating at 0.5 mg/mL” value came out at 0. For the same molecule, at succinate dehydrogenase, the IC50 came out at 0.074 µM. Also, in the experiment with Botrytis cinerea [2], the pest or weed control at 50 ppm was determined as 0% and the pest or weed control at 200 ppm turned out to be 0%.

For the molecule `Cn1cc(C(=O)Nc2ccccc2OCC2CCCC2)c(C(F)F)n1` [Example 46, 1H-pyrazole-4-carboxamide, N-[2-(cyclopentylmethoxy)phenyl]-3-(difluoromethyl)-1-methyl-], the “Disease Control Rating at 500 ppm” value in the experiment on Botrytis cinerea [1] was 0. Further, in the experiment with Rhizoctonia solani, the “Disease Control Rating at 0.02 mg/mL” value was 2, the “Disease Control Rating at 0.1 mg/mL” value was 3 and the “Disease Control Rating at 0.5 mg/mL” value is 3. Moreover, on succinate dehydrogenase, the IC50 is 0.096 µM. In the experiment with Botrytis cinerea [2], the pest or weed control at 50 ppm stood at 1% and the pest or weed control at 200 ppm came out at 0%.

As to `CC(=C1CCCC1)c1ccccc1NC(=O)c1cn(C)nc1C(F)(F)F` [Example 33, 1H-pyrazole-4-carboxamide, N-[2-(1-cyclopentylideneethyl)phenyl]-1-methyl-3-(trifluoromethyl)-], in the experiment with Botrytis cinerea [1], the “Disease Control Rating at 20 ppm” value is reported as 1, the “Disease Control Rating at 100 ppm” value is on record as 1 and the “Disease Control Rating at 500 ppm” value is recorded as 2. Besides, in the experiment with Rhizoctonia solani, the “Disease Control Rating at 0.02 mg/mL” value turned out to be 1, the “Disease Control Rating at 0.1 mg/mL” value was 1 and the “Disease Control Rating at 0.5 mg/mL” value was 3. In addition, the IC50 on succinate dehydrogenase came out at 0.0014 µM. In the experiment with Botrytis cinerea [2], the pest or weed control at 50 ppm came out at 34% and the pest or weed control at 200 ppm was found to be 41%.

Turning to `Cn1cc(C(=O)Nc2ccccc2C2CCCCC2)c(Br)n1` [Example 5, 1H-pyrazole-4-carboxamide, 3-bromo-N-(2-cyclohexylphenyl)-1-methyl-], in the experiment on Botrytis cinerea [1], the “Disease Control Rating at 20 ppm” value is recorded as 1, the “Disease Control Rating at 100 ppm” value was 3 and the “Disease Control Rating at 500 ppm” value is 3. Also, in the experiment with Rhizoctonia solani, the “Disease Control Rating at 0.5 mg/mL” value turned out to be 0. Further, on succinate dehydrogenase, the IC50 came to 0.0066 µM. Also, in the experiment on Botrytis cinerea [2], the pest or weed control at 50 ppm was 50% and the pest or weed control at 200 ppm is 40%.

As for `Cn1cc(C(=O)Nc2ccccc2C2CC(C)(C)CC(C)(C)C2)c(C(F)(F)F)n1` [Example 139, 1H-pyrazole-4-carboxamide, 1-methyl-N-[2-(3,3,5,5-tetramethylcyclohexyl)phenyl]-3-(trifluoromethyl)-], in the experiment with Botrytis cinerea [1], the “Disease Control Rating at 20 ppm” value turned out to be 0, the “Disease Control Rating at 100 ppm” value was 0 and the “Disease Control Rating at 500 ppm” value worked out at 0. For the same molecule, in the experiment on Rhizoctonia solani, the “Disease Control Rating at 0.02 mg/mL” value is on record as 2, the “Disease Control Rating at 0.1 mg/mL” value is reported as 2 and the “Disease Control Rating at 0.5 mg/mL” value amounted to 3. The IC50 on succinate dehydrogenase worked out at 0.032 µM. Moreover, in the experiment on Botrytis cinerea [2], the pest or weed control at 50 ppm turned out to be 2% and the pest or weed control at 200 ppm came out at 1%.

For the molecule `Cn1cc(C(=O)Nc2ccccc2C2CCC(C(C)(C)C)CC2)c(C(F)(F)F)n1` (stereo not drawn) [Example 135, 1H-pyrazole-4-carboxamide, N-[2-[4-(1,1-dimethylethyl)cyclohexyl]-phenyl]-1-methyl-3-(trifluoromethyl)-], in the experiment on Botrytis cinerea [1], the “Disease Control Rating at 20 ppm” value worked out at 1, the “Disease Control Rating at 100 ppm” value is 1 and the “Disease Control Rating at 500 ppm” value was determined as 2. In addition, the “Disease Control Rating at 0.5 mg/mL” value in the experiment with Rhizoctonia solani was 3. Moreover, the IC50 at succinate dehydrogenase was found to be 0.01 µM. Further, in the experiment on Botrytis cinerea [2], the pest or weed control at 50 ppm is 52% and the pest or weed control at 200 ppm amounted to 66%.

As to `Cn1cc(C(=O)Nc2ccccc2O[C@@H]2C[C@H]3CC[C@@H]2C3)c(C(F)(F)F)n1` (relative stereo) [Example 81], in the experiment with Botrytis cinerea [1], the “Disease Control Rating at 500 ppm” value worked out at 0. In the experiment with Rhizoctonia solani, the “Disease Control Rating at 0.02 mg/mL” value is 3, the “Disease Control Rating at 0.1 mg/mL” value stood at 3 and the “Disease Control Rating at 0.5 mg/mL” value is recorded as 3. In addition, the IC50 on succinate dehydrogenase was 0.38 µM. Further, in the experiment on Botrytis cinerea [2], the pest or weed control at 50 ppm is 0% and the pest or weed control at 200 ppm stood at 7%.

For the molecule `Cn1cc(C(=O)Nc2ccccc2C2=CC(C)(C)CC(C)(C)C2)c(C(F)(F)F)n1` [Example 123, 1H-pyrazole-4-carboxamide, 1-methyl-N-[2-(3,3,5,5-tetramethyl-1-cyclohexen-1-yl)phenyl]-3-(trifluoromethyl)-], in the experiment on Botrytis cinerea [1], the “Disease Control Rating at 20 ppm” value was 0, the “Disease Control Rating at 100 ppm” value is reported as 0 and the “Disease Control Rating at 500 ppm” value is listed as 0. For the same molecule, the “Disease Control Rating at 0.5 mg/mL” value in the experiment on Rhizoctonia solani was 0. On succinate dehydrogenase, the IC50 came out at 0.023 µM. In addition, in the experiment with Botrytis cinerea [2], the pest or weed control at 50 ppm came to 14% and the pest or weed control at 200 ppm is 36%.

In the case of `Cn1cc(C(=O)Nc2cc(Br)cc(Br)c2C2CCCCC2)c(C(F)(F)F)n1` [Example 136, 1H-pyrazole-4-carboxamide, N-(3,5-dibromo-2-cyclohexylphenyl)-1-methyl-3-(trifluoromethyl)-], in the experiment with Botrytis cinerea [1], the “Disease Control Rating at 20 ppm” value worked out at 0, the “Disease Control Rating at 100 ppm” value stood at 0 and the “Disease Control Rating at 500 ppm” value was 1. The “Disease Control Rating at 0.5 mg/mL” value in the experiment with Rhizoctonia solani is given as 0. In the experiment on Botrytis cinerea [2], the pest or weed control at 50 ppm worked out at 7% and the pest or weed control at 200 ppm was 0%.
